Laboratory results: patent EP4745137A1 (Gluetacs Therapeutics (Shanghai) Co., Ltd., priority 2023, dated 2025)

How the values were obtained:
Type in all cases: cell-based
Details in all cases: 24 hours of compound treatment
[1] = target: T1, GSPT1 (Homo sapiens, UniProt P15170+Q96SW2); assay: Western-blot assay of substrate protein degradation in hPBMCs, GSPT1
T1 construct: endogenous in cells; host or cells: hPBMCs (Milecell Biotechnologies)
Description: (§1) After 24 hours of compounds treatment, cells were harvested and lysed in RIPA protein lysate containing protease inhibitors on ice for 30 min, followed by centrifugation. The supernatant was aspirated as the extracted total cell protein. The protein concentration of the supernatant was determined using the conventional BCA (Bicinchoninic Acid) assay. • (2) To the collected supernatant, 5X SDS sample loading buffer was added, followed by denaturation at 95°C for 5 minutes. The denatured samples were then separated by SDS-PAGE electrophoresis on a polyacrylamide gel, transferred onto a nitrocellulose membrane (0.45 µm NC membrane), blocked with blocking buffer at room temperature for 1 hour, and subjected to antibody incubation and development procedures according to the antibody manufacturer's instructions (Cell Signaling Technology Company). […]
(§2) Target protein remaining (%) refers to the percentage of target protein remaining in cells after treatment with protein degrader compounds.
(§3) Calculation method for target protein remaining (%): Use ImageJ software to measure grayscale values of Western blot bands from drug (protein degrader)-treated samples. The grayscale value of drug-treated bands is divided by that of internal control protein bands, and the resulting quotient is normalized to obtain the relative percentage of remaining target protein after protein degrader treatment. Target protein degradation rate(%) = 1−target protein remaining(%). [formula]

[2] = target: T2, CK1α (Homo sapiens, UniProt P48729+Q96SW2); assay: Western-blot assay of substrate protein degradation in hPBMCs, CK1α
T2 construct: endogenous in cells; host or cells: hPBMCs (Milecell Biotechnologies)
Description: as §1, §2, §3

[3] = target: T3, IKZF1 (Homo sapiens, UniProt Q13422+Q96SW2); assay: Western-blot assay of substrate protein degradation in hPBMCs, IKZF1
T3 construct: endogenous in cells; host or cells: hPBMCs (Milecell Biotechnologies)
Description: as §1, §2, §3

[4] = target: T4, WEE1 (Homo sapiens, UniProt P30291+Q96SW2); assay: Western-blot assay of substrate protein degradation in hPBMCs, WEE1
T4 construct: endogenous in cells; host or cells: hPBMCs (Milecell Biotechnologies)
Description: as §1, §2, §3

[5] = target: T5, IKZF3 (Homo sapiens, UniProt Q96SW2+Q9UKT9); assay: Western-blot assay of substrate protein degradation in hPBMCs, IKZF3
T5 construct: endogenous in cells; host or cells: hPBMCs (Milecell Biotechnologies)
Description: as §1, §2, §3

[6] = target: T6, IKZF2 (Homo sapiens, UniProt Q96SW2+Q9UKS7); assay: Western-blot assay of substrate protein degradation in hPBMCs, IKZF2
T6 construct: endogenous in cells; host or cells: hPBMCs (Milecell Biotechnologies)
Description: as §1, §2, §3

[7] = compounds tested at 50 nM and 500 nM (concentration of the table not stated)
[8] = 50 nM and 500 nM tested (concentration behind the class not stated)

T5 sequence (Q9UKT9 whole entry): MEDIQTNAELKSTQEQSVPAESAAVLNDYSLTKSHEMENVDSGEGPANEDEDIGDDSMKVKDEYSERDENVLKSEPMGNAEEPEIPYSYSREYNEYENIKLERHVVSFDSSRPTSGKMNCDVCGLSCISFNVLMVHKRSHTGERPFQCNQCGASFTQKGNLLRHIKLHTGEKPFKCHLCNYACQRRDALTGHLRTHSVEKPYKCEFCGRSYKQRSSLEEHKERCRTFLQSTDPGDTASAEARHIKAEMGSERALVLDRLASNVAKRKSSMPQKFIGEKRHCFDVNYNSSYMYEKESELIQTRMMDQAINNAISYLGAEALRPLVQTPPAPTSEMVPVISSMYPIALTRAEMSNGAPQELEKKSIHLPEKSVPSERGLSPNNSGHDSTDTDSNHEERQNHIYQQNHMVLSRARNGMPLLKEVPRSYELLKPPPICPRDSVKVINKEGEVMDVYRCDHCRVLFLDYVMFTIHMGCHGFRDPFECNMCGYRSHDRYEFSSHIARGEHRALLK
T5 sequence (Q96SW2 whole entry): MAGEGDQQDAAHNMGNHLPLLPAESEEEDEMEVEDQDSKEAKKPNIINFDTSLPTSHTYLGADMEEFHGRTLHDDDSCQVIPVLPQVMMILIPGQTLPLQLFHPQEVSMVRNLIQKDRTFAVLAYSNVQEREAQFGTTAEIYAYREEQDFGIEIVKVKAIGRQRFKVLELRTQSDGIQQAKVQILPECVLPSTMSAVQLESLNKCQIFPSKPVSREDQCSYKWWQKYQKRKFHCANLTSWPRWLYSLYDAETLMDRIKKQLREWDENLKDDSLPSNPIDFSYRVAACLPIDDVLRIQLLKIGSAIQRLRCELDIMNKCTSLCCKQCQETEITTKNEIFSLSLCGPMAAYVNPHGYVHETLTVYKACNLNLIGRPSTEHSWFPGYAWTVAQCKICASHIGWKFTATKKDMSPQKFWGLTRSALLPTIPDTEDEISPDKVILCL
T5 sequence (Q16531 whole entry partner): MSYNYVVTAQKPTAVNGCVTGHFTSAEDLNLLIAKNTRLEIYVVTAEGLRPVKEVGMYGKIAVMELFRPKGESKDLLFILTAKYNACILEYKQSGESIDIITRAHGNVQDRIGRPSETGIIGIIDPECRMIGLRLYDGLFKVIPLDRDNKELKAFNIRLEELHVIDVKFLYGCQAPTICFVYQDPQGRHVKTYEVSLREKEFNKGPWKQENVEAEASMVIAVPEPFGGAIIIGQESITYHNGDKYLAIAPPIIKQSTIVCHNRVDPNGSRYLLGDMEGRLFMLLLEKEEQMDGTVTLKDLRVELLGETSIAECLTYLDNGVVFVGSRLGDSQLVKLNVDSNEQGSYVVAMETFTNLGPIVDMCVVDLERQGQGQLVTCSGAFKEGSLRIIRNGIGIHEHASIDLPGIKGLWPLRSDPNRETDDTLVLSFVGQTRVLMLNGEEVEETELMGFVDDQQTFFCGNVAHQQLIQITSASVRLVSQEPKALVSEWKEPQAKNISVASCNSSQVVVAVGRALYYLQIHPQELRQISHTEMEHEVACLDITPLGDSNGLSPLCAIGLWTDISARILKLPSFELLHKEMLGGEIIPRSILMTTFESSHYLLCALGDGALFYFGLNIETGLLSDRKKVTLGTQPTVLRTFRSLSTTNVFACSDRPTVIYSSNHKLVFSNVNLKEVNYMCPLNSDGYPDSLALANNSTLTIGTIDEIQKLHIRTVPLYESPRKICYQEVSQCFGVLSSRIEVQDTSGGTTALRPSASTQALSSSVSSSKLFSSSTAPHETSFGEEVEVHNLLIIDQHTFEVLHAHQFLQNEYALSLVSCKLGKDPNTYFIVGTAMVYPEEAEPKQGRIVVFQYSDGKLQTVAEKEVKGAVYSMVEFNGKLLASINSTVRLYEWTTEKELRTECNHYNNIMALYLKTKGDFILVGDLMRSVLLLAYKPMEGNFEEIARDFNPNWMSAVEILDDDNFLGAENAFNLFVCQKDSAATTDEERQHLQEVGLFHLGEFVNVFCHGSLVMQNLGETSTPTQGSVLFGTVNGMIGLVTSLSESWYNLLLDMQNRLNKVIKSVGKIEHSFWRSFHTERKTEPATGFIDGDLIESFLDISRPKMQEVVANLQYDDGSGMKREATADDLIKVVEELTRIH
T3 sequence (Q13422 whole entry): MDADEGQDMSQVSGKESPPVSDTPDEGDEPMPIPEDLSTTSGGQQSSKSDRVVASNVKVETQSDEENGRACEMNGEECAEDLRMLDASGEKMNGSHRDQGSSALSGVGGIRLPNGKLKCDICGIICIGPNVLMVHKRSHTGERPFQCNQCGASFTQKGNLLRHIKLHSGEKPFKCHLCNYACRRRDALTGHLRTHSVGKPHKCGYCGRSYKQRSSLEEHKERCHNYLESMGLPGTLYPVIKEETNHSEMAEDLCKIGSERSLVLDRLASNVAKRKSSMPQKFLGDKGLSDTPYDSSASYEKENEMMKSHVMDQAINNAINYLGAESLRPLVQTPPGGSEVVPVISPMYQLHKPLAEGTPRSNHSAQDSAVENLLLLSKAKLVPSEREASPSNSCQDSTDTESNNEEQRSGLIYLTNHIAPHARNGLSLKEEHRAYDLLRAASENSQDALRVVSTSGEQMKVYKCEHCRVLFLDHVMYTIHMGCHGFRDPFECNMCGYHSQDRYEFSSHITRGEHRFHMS
T3 sequence (Q96SW2 whole entry): as the sequence (Q96SW2 whole entry) above
T3 sequence (Q16531 whole entry partner): as the sequence (Q16531 whole entry partner) above
T1 sequence (P15170 whole entry): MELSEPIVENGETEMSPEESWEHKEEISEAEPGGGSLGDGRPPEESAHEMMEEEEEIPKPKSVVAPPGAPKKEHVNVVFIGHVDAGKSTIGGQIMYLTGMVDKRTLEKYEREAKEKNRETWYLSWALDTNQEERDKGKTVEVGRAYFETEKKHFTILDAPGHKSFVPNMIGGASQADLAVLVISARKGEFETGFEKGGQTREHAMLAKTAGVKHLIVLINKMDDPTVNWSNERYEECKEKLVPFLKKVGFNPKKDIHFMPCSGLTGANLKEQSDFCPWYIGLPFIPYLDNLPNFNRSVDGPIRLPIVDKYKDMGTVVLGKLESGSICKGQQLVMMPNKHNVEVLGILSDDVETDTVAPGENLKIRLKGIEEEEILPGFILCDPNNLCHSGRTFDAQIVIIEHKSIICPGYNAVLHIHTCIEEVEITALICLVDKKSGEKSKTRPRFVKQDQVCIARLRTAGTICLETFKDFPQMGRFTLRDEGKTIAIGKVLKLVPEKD
T1 sequence (Q96SW2 whole entry): as the sequence (Q96SW2 whole entry) above
T1 sequence (Q16531 whole entry partner): as the sequence (Q16531 whole entry partner) above
T2 sequence (P48729 whole entry): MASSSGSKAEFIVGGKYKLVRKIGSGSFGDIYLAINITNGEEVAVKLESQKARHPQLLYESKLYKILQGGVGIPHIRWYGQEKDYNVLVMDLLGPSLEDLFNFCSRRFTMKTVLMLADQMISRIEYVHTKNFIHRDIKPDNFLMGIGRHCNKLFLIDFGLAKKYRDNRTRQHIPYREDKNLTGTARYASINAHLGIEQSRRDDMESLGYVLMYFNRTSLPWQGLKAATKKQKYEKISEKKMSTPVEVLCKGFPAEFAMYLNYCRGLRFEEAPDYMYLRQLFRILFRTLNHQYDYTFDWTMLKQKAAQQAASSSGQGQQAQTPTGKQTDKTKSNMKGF
T2 sequence (Q96SW2 whole entry): as the sequence (Q96SW2 whole entry) above
T2 sequence (Q16531 whole entry partner): as the sequence (Q16531 whole entry partner) above
T6 sequence (Q9UKS7 whole entry): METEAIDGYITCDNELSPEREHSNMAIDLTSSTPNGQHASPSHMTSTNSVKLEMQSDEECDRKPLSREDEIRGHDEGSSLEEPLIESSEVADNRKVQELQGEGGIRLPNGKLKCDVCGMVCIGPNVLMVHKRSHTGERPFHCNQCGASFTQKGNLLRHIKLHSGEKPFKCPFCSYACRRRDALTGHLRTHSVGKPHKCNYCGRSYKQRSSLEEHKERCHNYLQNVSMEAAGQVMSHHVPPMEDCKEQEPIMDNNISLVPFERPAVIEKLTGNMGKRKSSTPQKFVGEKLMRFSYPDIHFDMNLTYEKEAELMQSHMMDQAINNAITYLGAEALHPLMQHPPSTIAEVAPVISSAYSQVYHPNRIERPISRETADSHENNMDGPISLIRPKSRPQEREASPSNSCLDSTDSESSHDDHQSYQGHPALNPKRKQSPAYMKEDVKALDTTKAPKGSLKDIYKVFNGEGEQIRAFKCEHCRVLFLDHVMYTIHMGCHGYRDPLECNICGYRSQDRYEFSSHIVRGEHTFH
T6 sequence (Q96SW2 whole entry): as the sequence (Q96SW2 whole entry) above
T6 sequence (Q16531 whole entry partner): as the sequence (Q16531 whole entry partner) above

Row | Structure (SMILES) | GSPT1 substrate protein remaining % [1, 7] | CK1a substrate protein remaining % [2, 7] | IKZF 1 substrate protein remaining % [3, 7] | Weel substrate protein remaining % [4, 7] | IKZF3 substrate protein remaining % [5, 7] | IKZF2 substrate protein remaining % [6, 7] | GSPT1 substrate protein remaining % [1, 8] | CK1a substrate protein remaining % [2, 8] | IKZF 1 substrate protein remaining % [3, 8] | Weel substrate protein remaining % [4, 8] | IKZF3 substrate protein remaining % [5, 8] | IKZF2 substrate protein remaining % [6, 8]
1 | O=C1CCC(N2Cc3cc(CN4CCN(Cc5ccc(C67CC8CC(CC(C8)C6)C7)cc5)CC4)ccc3C2=O)C(=O)N1 (stereo not drawn) [GT-03026, 3-(5-((4-(4-((3r,5r,7r)-adamantan-1-yl)benzyl)piperazin-1-yl)methyl)-1-oxoisoindolin-2-yl)piperidine-2,6-dione] | A (0% ≤ substrate protein remaining % ≤ 80%) | A (0% ≤ substrate protein remaining % ≤ 80%) | A (0% ≤ substrate protein remaining % ≤ 80%) | B (80%< substrate protein remaining %≤ 100%) | A (0% ≤ substrate protein remaining % ≤ 80%) | A (0% ≤ substrate protein remaining % ≤ 80%) |  |  |  |  |  | 
2 | O=C1CCC(N2Cc3cc(CN4CCn5c(nnc5C(F)(F)F)C4)ccc3C2=O)C(=O)N1 (stereo not drawn) [GT-04199, 3-(1-oxo-5-((3-(trifluoromethyl)-5,6-dihydro-[1,2,4]triazolo[4,3-a]pyrazin-7(8H)-yl)methyl)isoindolin-2-yl)piperidine-2,6-dione] | B (80%< substrate protein remaining %≤ 100%) | B (80%< substrate protein remaining %≤ 100%) | B (80%< substrate protein remaining %≤ 100%) | A (0% ≤ substrate protein remaining % ≤ 80%) | A (0% ≤ substrate protein remaining % ≤ 80%) | A (0% ≤ substrate protein remaining % ≤ 80%) |  |  |  |  |  | 
3 | O=C1CCC(N2Cc3c(CN4CCC(c5noc6cc(F)ccc56)CC4)cccc3C2=O)C(=O)N1 (stereo not drawn) [GT-04764, 3-(4-((4-(6-fluorobenzo[d]isoxazol-3-yl)piperidin-1-yl)methyl)-1-oxoisoindolin-2-yl)piperidine-2,6-dione] | A (0% ≤ substrate protein remaining % ≤ 80%) | A (0% ≤ substrate protein remaining % ≤ 80%) | B (80%< substrate protein remaining %≤ 100%) | A (0% ≤ substrate protein remaining % ≤ 80%) | B (80%< substrate protein remaining %≤ 100%) | B (80%< substrate protein remaining %≤ 100%) |  |  |  |  |  | 
4 | O=C1CCC(N2C(=O)c3cccc(CN4CCC(c5noc6cc(F)ccc56)CC4)c3C2=O)C(=O)N1 (stereo not drawn) [GT-04770, 2-(2,6-dioxopiperidin-3-yl)-4-((4-(6-fluorobenzo[d]isoxazol-3-yl)piperidin-1-yl)methyl)isoindoline-1,3-dione] | A (0% ≤ substrate protein remaining % ≤ 80%) | B (80%< substrate protein remaining %≤ 100%) | B (80%< substrate protein remaining %≤ 100%) | B (80%< substrate protein remaining %≤ 100%) | B (80%< substrate protein remaining %≤ 100%) | B (80%< substrate protein remaining %≤ 100%) |  |  |  |  |  | 
5 | O=C1CCC(N2C(=O)c3ccc(CN4CCC(c5noc6cc(F)ccc56)CC4)cc3C2=O)C(=O)N1 (stereo not drawn) [GT-04771, 2-(2,6-dioxopiperidin-3-yl)-5-((4-(6-fluorobenzo[d]isoxazol-3-yl)piperidin-1-yl)methyl)isoindoline-1,3-dione] | A (0% ≤ substrate protein remaining % ≤ 80%) | A (0% ≤ substrate protein remaining % ≤ 80%) | B (80%< substrate protein remaining %≤ 100%) | A (0% ≤ substrate protein remaining % ≤ 80%) | B (80%< substrate protein remaining %≤ 100%) | B (80%< substrate protein remaining %≤ 100%) |  |  |  |  |  | 
6 | O=C1CCC(N2Cc3c(CN4CCN(c5cccc6sccc56)CC4)cccc3C2=O)C(=O)N1 (stereo not drawn) [GT-04914, 3-(4-((4-(benzo[b]thiophen-4-yl)piperazin-1-yl)methyl)-1-oxoisoindolin-2-yl)piperidine-2,6-dione] | A (0% ≤ substrate protein remaining % ≤ 80%) | A (0% ≤ substrate protein remaining % ≤ 80%) | A (0% ≤ substrate protein remaining % ≤ 80%) | A (0% ≤ substrate protein remaining % ≤ 80%) | B (80%< substrate protein remaining %≤ 100%) | B (80%< substrate protein remaining %≤ 100%) |  |  |  |  |  | 
7 | O=C1CCC(N2Cc3c(CN4CCn5c(nnc5C(F)(F)F)C4)cccc3C2=O)C(=O)N1 (stereo not drawn) [GT-04920, 3-(1-oxo-4-((3-(trifluoromethyl)-5,6-dihydro-[1,2,4]triazolo[4,3-a]pyrazin-7(8H)-yl)methyl)isoindolin-2-yl)piperidine-2,6-dione] | A (0% ≤ substrate protein remaining % ≤ 80%) | B (80%< substrate protein remaining %≤ 100%) | A (0% ≤ substrate protein remaining % ≤ 80%) | A (0% ≤ substrate protein remaining % ≤ 80%) | A (0% ≤ substrate protein remaining % ≤ 80%) | A (0% ≤ substrate protein remaining % ≤ 80%) |  |  |  |  |  | 
8 | O=C1CCC(N2C(=O)c3ccc(CN4CCn5c(nnc5C(F)(F)F)C4)cc3C2=O)C(=O)N1 (stereo not drawn) [GT-04921, 2-(2,6-dioxopiperidin-3-yl)-5-((3-(trifluoromethyl)-5,6-dihydro-[1,2,4]triazolo[4,3-a]pyrazin-7(8H)-yl)methyl)isoindoline-1,3-dione] | B (80%< substrate protein remaining %≤ 100%) | B (80%< substrate protein remaining %≤ 100%) | A (0% ≤ substrate protein remaining % ≤ 80%) | A (0% ≤ substrate protein remaining % ≤ 80%) | B (80%< substrate protein remaining %≤ 100%) | B (80%< substrate protein remaining %≤ 100%) |  |  |  |  |  | 
9 | Cc1ccsc1N1CCN(Cc2ccc3c(c2)C(=O)N(C2CCC(=O)NC2=O)C3=O)CC1 (stereo not drawn) [GT-06214, 2-(2,6-dioxopiperidin-3-yl)-5-((4-(3-methylthiophen-2-yl)piperazin-1-yl)methyl)isoindoline-1,3-dione] |  |  |  |  |  |  | A (0% ≤ substrate protein remaining % ≤ 80%) | B (80%< substrate protein remaining %≤ 100%) | B (80%< substrate protein remaining %≤ 100%) | B (80%< substrate protein remaining %≤ 100%) | B (80%< substrate protein remaining %≤ 100%) | A (0% ≤ substrate protein remaining % ≤ 80%)
10 | Cc1cc(N2CCN(Cc3ccc4c(c3)C(=O)N(C3CCC(=O)NC3=O)C4=O)CC2)cs1 (stereo not drawn) [GT-06218, 2-(2,6-dioxopiperidin-3-yl)-5-((4-(5-methylthiophen-3-yl)piperazin-1-yl)methyl)isoindoline-1,3-dione] |  |  |  |  |  |  | A (0% ≤ substrate protein remaining % ≤ 80%) | A (0% ≤ substrate protein remaining % ≤ 80%) | B (80%< substrate protein remaining %≤ 100%) | A (0% ≤ substrate protein remaining % ≤ 80%) | A (0% ≤ substrate protein remaining % ≤ 80%) | B (80%< substrate protein remaining %≤ 100%)
11 | O=C1CCC(N2C(=O)c3ccc(CN4CC=C(c5cccs5)CC4)cc3C2=O)C(=O)N1 (stereo not drawn) [GT-06219, 2-(2,6-dioxopiperidin-3-yl)-5-((4-(thiophen-2-yl)-3,6-dihydropyridin-1(2H)-yl)methyl)isoindoline-1,3-dione] |  |  |  |  |  |  | A (0% ≤ substrate protein remaining % ≤ 80%) | A (0% ≤ substrate protein remaining % ≤ 80%) | B (80%< substrate protein remaining %≤ 100%) | A (0% ≤ substrate protein remaining % ≤ 80%) | A (0% ≤ substrate protein remaining % ≤ 80%) | B (80%< substrate protein remaining %≤ 100%)
